The results in this text go back to PubChem BioAssay AID179 (DTP/NCI, 2004).

For this test, the system named is CEM cells HIV-1 protection, formazan growth assay. Nature of the test: NCI AIDS Antiviral Assay. The settings on record: for IC50: measured here: growth of uninfected CEM cells. Summed up: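 Human CEM cells, uninfected and HIV-1-infected, exposed to five drug concentrations; growth measured by soluble formazan assay and scored as percent protection from infection, with protecting compounds retested.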

Activity calls are given as the source filed them.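 The calls were made as follows: active = compounds giving half or more protection of infected cells from virus-caused growth loss, again on retest; inactive = the rest.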

With `CC[N+](CC)=c1cc2oc3cc(N(C)C)ccc3nc-2cc1C`, the EC50 was > 200 µM and the IC50 came out at 16.2 µM.

As for `Oc1cccc(/C=C/c2cnnc3ccccc23)c1`, the EC50 is > 200 µM and the IC50 turned out to be 37.2 µM.

On to `C#CCNC(=O)NC(CCCCNC(=O)OCc1ccccc1)C(=O)OCc1ccccc1` (stereo not drawn), for which the EC50 is > 57.5 µM and the IC50 worked out at 42.7 µM.

Consider `O=S1(=O)OC(c2ccc(O)c(Cl)c2)(c2ccc(O)c(Cl)c2)c2ccccc21`, for which the outcome was inactive.

For the compound `CCOC(=O)c1c(Br)c(-c2ccc([N+](=O)[O-])cc2)c(Br)n1C`, the EC50 was > 200 µM and the IC50 was 39.8 µM.

In the case of `CC(NC(=O)c1ccccc1)C(=O)N(Cc1ccccc1)Cc1ccccc1` (stereo not drawn), the EC50 was > 97.7 µM and the IC50 is > 97.7 µM.

On to `N#CC1(C#N)C2=C(CCCC2)NC(c2ccc(Br)cc2)C1(C#N)C#N` (stereo not drawn), for which the EC50 was > 0.2 µM and the IC50 was 0.0813 µM.

As for `O=C(NCCO)c1cc2c(cn1)[nH]c1ccccc12`, the outcome was inactive.

Turning to `O=C1O[C@@H](c2ccccc2)C[C@H]1CN1CCOCC1`, the result was inactive.

For `CN(C)c1nc2n(CCO)ccnc-2c(=O)n1`, the EC50 was > 100 µM and the IC50 was > 100 µM.

Turning to `CN(N=O)C(N)=NC(=O)c1ccccc1`, the EC50 is > 200 µM and the IC50 is 141 µM.

As for `O=C(CCn1ccnc1[N+](=O)[O-])NCCCn1ccnc1[N+](=O)[O-]`, the EC50 was > 200 µM and the IC50 is > 200 µM.

Consider `Cn1c(=O)cn[nH]c1=O`, for which the EC50 is > 200 µM and the IC50 was > 200 µM.

Turning to `CC(C)(C)OC(=O)NC(Cc1ccc([N+](=O)[O-])cc1)C(=O)NC(CCCCNC(=O)OCc1ccccc1)C(=O)ON1C(=O)CCC1=O` (stereo not drawn), the EC50 is > 200 µM and the IC50 came to 56.2 µM.

In the case of `CC(C)c1cccc(C(C)C)c1NC(=O)CCC(=O)NN`, the EC50 was > 324 µM and the IC50 is > 324 µM.

Regarding `COc1ccc2nc3cc([N+](=O)[O-])ccc3c(NCCO)c2c1`, the EC50 was > 200 µM and the IC50 was determined as 1.05 µM.

`CCc1cccc(C(C)CC)c1NC(=O)C(=O)Cc1nc2ccccc2o1` (stereo not drawn): the EC50 was > 347 µM and the IC50 is > 347 µM.

Take `Cc1nnnn1[C@H]1C(C#N)CC2[C@@H]3CCC4=Cc5nnnn5CC[C@]4(C)C3CC[C@@]21C` (stereo partly drawn): the EC50 was > 85.1 µM and the IC50 is > 85.1 µM.

As to `CC(C)(CO)CNc1nc(N)nc(Cl)c1/C=N/O`, the EC50 was > 200 µM and the IC50 came to 5.5 µM.

Regarding `CCOC(=O)C(/C(=N\NC(=O)OC)C(=O)Nc1cc(OC)ccc1OC)c1cnc2ccccc2n1` (stereo not drawn), the EC50 is 81.3 µM and the IC50 worked out at 138 µM.

For the compound `CCCCCCCCCCCc1c2[nH]c3cc(C)ccc3oc2cc2[nH]c3cc(C)ccc3oc12`, the EC50 was > 2 µM and the IC50 is > 2 µM.

For `O=S(=O)(C1=CC(S(=O)(=O)c2ccccc2)CN(Cc2ccccc2)C1c1ccccc1)c1ccccc1` (stereo not drawn), the result was inactive.

Turning to `CNC(=O)OC(C)CN1c2ccccc2Sc2ccc(Cl)cc21` (stereo not drawn), the EC50 is > 200 µM and the IC50 was 26.9 µM.

Take `CC(C)CCC[C@@H](C)[C@H]1CC[C@H]2[C@@H]3CC=C4CC(OCCCCN(O)CCCSC5OC(CO)C(O)C(O)C5O)CC[C@]4(C)[C@H]3CC[C@]12C` (stereo partly drawn): the EC50 is > 200 µM and the concentration for half-maximal inhibition (IC50) is 35.5 µM.

Take `O=C1c2ccccc2CCC1C(O)(C(F)(F)F)C(F)(F)F` (stereo not drawn): the EC50 is > 200 µM and the IC50 was > 200 µM.

Consider `c1ccc([P+](CC[P+](c2ccccc2)(c2ccccc2)c2ccccc2)(c2ccccc2)c2ccccc2)cc1`, for which the EC50 is > 200 µM and the IC50 was determined as 6.17 µM.

For the compound `CC(C)(C)OC(=O)NC(Cc1ccc(OC(C)(C)C)cc1)C(=O)N[C@H]1CCC[C@H]1C(=O)NC(Cc1ccccc1)C(=O)N1CCCC1C(N)=O` (stereo partly drawn), the EC50 was > 100 µM and the IC50 is > 100 µM.

`COc1ccc(-c2c(O)c3ccc(OC)cc3oc2=O)cc1`: the EC50 is > 200 µM and the IC50 was 155 µM.

In the case of `CCc1ccccc1NC(=O)CC1NC(=O)CS1` (stereo not drawn), the EC50 is > 339 µM and the IC50 was determined as 214 µM.

On to `CN1Cc2cc3cc4c(cc3nc2N(C)C1)OCCO4`, for which the EC50 is > 200 µM and the half-inhibitory concentration (IC50) was 162 µM.

`Cc1ccc(S(=O)(=O)Sc2nnnn2C)cc1`: the EC50 is > 251 µM and the IC50 came to 53.7 µM.

For the compound `Cc1ccc(-n2cc(-c3ccc(Cl)cc3)c3c(=N)n(N)cnc32)cc1`, the EC50 is > 100 µM and the IC50 stood at 13.5 µM.

On to `CC(C)(C)OC(=O)NCC(C#N)CNC(=O)OC(C)(C)C`, for which the EC50 was > 603 µM and the IC50 was > 603 µM.

With `Cc1ccc(S(=O)(=O)N(CCN)c2cc3c4c(c2)Oc2cccc5c2C4c2c(cccc2O3)O5)cc1`, the EC50 is > 200 µM and the IC50 came to 35.5 µM.

As for `COC(=N)CCSSCCC(=N)OC`, the EC50 is > 200 µM and the IC50 is > 200 µM.

For the compound `COc1ccc2[nH]c3c(C)c4ccnc(NCCCN(C)CCCNc5ccc6nnn7c8ccccc8c(=O)c5c67)c4c(C)c3c2c1`, the EC50 was > 0.1 µM and the IC50 came to 0.0316 µM.

For the compound `N#C/C(=C\c1ccc(O)c(O)c1)C(N)=O`, the EC50 was > 25.1 µM and the IC50 turned out to be 10.5 µM.

With `O=C1c2cccnc2S(=O)N1Cc1ccccc1` (stereo not drawn), the EC50 was 105 µM and the IC50 was > 200 µM.

With `Cc1ccc(-c2oc(C=Nc3ccccc3)c([N+](=O)[O-])c2-c2ccc(C)cc2)cc1`, the EC50 is > 200 µM and the IC50 was > 200 µM.

In the case of `CC(OC1C(N)C(O)OC(CO)C1O)C(=O)O` (stereo not drawn), the outcome was inactive.

For the compound `NC1=CN2c3ccccc3N(CC(=O)O)C2C=C1` (stereo not drawn), the EC50 is > 200 µM and the IC50 is > 200 µM.

With `c1ccc([P+](CCN2Cc3ccccc3C2)(c2ccccc2)c2ccccc2)cc1`, the EC50 was > 200 µM and the IC50 was found to be 3.31 µM.

`COc1ccc(C2=CC(C(C)=C(C(N)=O)C(N)=O)C=C(c3ccc(Br)cc3)C2)c(OC)c1` (stereo not drawn): the EC50 is > 200 µM and the IC50 worked out at 75.9 µM.

For `O=C1C(=O)c2ccccc2C(O)=C1CCCCCCCCC1CCCCC1`, the EC50 was > 200 µM and the IC50 is 12 µM.

On to `CCOCCOCCOCOCCOCCOCC`, for which the EC50 was > 200 µM and the IC50 was > 200 µM.

On to `O=c1c(O)c(-c2ccccc2)n(O)c2ccc(Cl)cc12`, for which the EC50 is > 18.2 µM and the IC50 is > 18.2 µM.

On to `Cc1ccc2sc3cc(=O)cc(C)c-3nc2c1`, for which the EC50 was > 10.7 µM and the IC50 is > 10.7 µM.

Take `O=C1CNc2cc(N3CCOCC3)ccc2N1`: the EC50 is > 200 µM and the IC50 was determined as 28.2 µM.

On to `COC(=O)c1ccc(SSc2ccc(C(=O)OC)cc2[N+](=O)[O-])c([N+](=O)[O-])c1`, for which the result was inactive.

Take `CCOC(=O)C1=C(NC(C)(C)C)OC/C1=N\NC(=O)Cc1ccccc1`: the EC50 was > 72.4 µM and the IC50 is > 72.4 µM.

Regarding `CC1(C)CCCCCCCCCC2CC2CCC(C)(C)C1=O` (stereo not drawn), the EC50 is > 200 µM and the IC50 is > 100 µM.

Consider `COc1cc2cccc(N)c2cc1OC`, for which the EC50 is > 200 µM and the IC50 is > 200 µM.

In the case of `O=c1nc(N2CCCC2)oc2cc3ccccc3cc12`, the EC50 was > 200 µM and the IC50 was 89.1 µM.

For the compound `O=C(OC[C@H]1OCC(=O)[C@@]2(OC(=O)c3ccccc3)[C@@H]1[C@H]1C=C[C@@H]2C1)c1ccccc1`, the outcome was inactive.

Consider `Cc1nnc(NS(=O)(=O)c2ccc(N=Nc3cc(N=Nc4ccc(S(=O)(=O)Nc5nnc(C)s5)cc4)c4c(NC(=O)C(Cl)Cl)cccc4c3OC(=O)C(Cl)Cl)cc2)s1` (tested in a mixture with another compound), for which the result was inactive.

Take `CC(=O)OC1C(CN2CCOC2=O)OC(n2cc(C)c(=O)[nH]c2=O)C1OC(C)=O` (stereo not drawn): the EC50 was > 200 µM and the IC50 was > 200 µM.

As for `COc1ccc2c(c1)CCc1cnoc1-2`, the EC50 is > 178 µM and the IC50 was 110 µM.

With `CC(=O)Nc1nc(C)c(CCC#N)c(SC(=N)N)n1`, the EC50 is > 200 µM and the IC50 was > 200 µM.

As for `COc1c2occc2c(N=Cc2ccncc2)c2ccc(=O)oc12`, the EC50 is > 39.8 µM and the IC50 was > 39.8 µM.

`COc1cc2c3c(ccc2cc1O)-c1cc(OC)c(OC)cc1C[N+]3(C)C`: the EC50 was > 4.47 µM and the IC50 was > 4.47 µM.

As for `O=[N+]([O-])c1ccc2[nH]c(=S)n(/C=C(/c3ccc(Cl)cc3Cl)S(=O)(=O)Cc3ccc(Cl)cc3Cl)c2c1`, the EC50 was > 200 µM and the IC50 came out at 170 µM.

For the compound `C=C(C)C1CCC2=CC(CC3(C)OC3C3=CC(C(=O)OC)=C(C1)O3)OC2=O` (stereo not drawn), the EC50 was > 47.9 µM and the IC50 was > 47.9 µM.

In the case of `Cc1cccc(C)c1NC(=O)C(=O)CC(=O)/C=C/c1ccccc1`, the EC50 was > 776 µM and the IC50 amounted to 389 µM.

As to `O=C(O)C12CC3CC(CC(F)(C3)C1)C2`, the EC50 was > 912 µM and the IC50 was > 912 µM.

Turning to `COc1ccc(-c2c(C#N)c(-c3ccc(C)cc3)n(NS(=O)(=O)c3ccc(C)cc3)c(=O)c2C#N)cc1`, the EC50 was > 200 µM and the IC50 turned out to be 17.4 µM.

Turning to `O=C(/C=C/c1cccnc1)c1ccccc1`, the EC50 is > 123 µM and the IC50 was 7.59 µM.

As for `CCOC(=O)c1sc2c(c1OC(=O)c1cccs1)c(=O)n(-c1ccccc1)c(=S)n2-c1ccccc1`, the EC50 is > 200 µM and the IC50 was determined as 6.92 µM.

In the case of `C[CH2][Ge]([CH2]C)([CH2]C)[O]C(=O)C(OC(C)=O)c1ccccc1` (stereo not drawn), the EC50 is > 251 µM and the concentration for half-maximal inhibition (IC50) is 195 µM.

For `COc1csc([C@H]2CCC3[C@@H]4CC=C5C[C@@H](OC(C)=O)CC[C@]5(C)C4CC[C@@]32C)n1` (stereo partly drawn), the EC50 is > 57.5 µM and the IC50 was > 57.5 µM.

In the case of `O=C1CCC(=O)Nc2ccccc2-c2ccccc2N1`, the result was inactive.

Turning to `CCOC(=O)c1[nH]n(-c2ccccc2)c(=O)c1/C=N/C(=S)NCc1ccccc1`, the EC50 is > 200 µM and the IC50 was found to be 44.7 µM.
